Assay results reported in patent US11701361B2, “p110-delta inhibitors treat and prevent autoimmunity while sparing the ability to mount an immune response to exogenous immunogens” (THE REGENTS OF THE UNIVERSITY OF COLORADO, priority 2018, dated 2023).

Key:
NOD mice = test: antibody response of NOD mice to NP4Ova+Alum immunization on idelalisib chow; type: in vivo, mouse
Protocol: Diet dose (DD) is calculated by multiplying the single daily dose (SD) by the body weight of a mouse (BW) and dividing that by the daily food intake (FI) [DD=(SD×BW)/FI].
For VH125.NOD experiments animals are placed on control chow immediately after weaning.
HEL conjugated to SRBCs was used to produce antigen for experiments with MD4 B cells. SRBCs (Colorado Serum Company) were stored in Alsever's solution at 4° C. SRBCs are washed 3 times in PBS prior to use. 1 ml of 50 mg/ml of the chemical crosslinker N-(3-Dimethylaminopropyl)-N-ethylcarbodiimide hydrochloride (Sigma-Aldrich) was added to 1 ml packed SRBCs and 15 ml of 5 mg/ml HEL (Sigma-Aldrich), mixed and rotated at room temperature for 45 minutes. Mice were immunized IP with 200 μl of a 5% HEL-SRBC in PBS. For NP4Ova-Alum immunizations, 10 mg/ml alum and 5 mg/ml NP4Ova were mixed to a final concentration of 250 μg/ml NP4Ova and 2.5 mg/ml alum and rotated for 3 hours at room temperature. […] Mice were then immunized with NP4Ova-alum IP in 200 μl/mouse, and responses were measured on day 7 and day 14 post-immunization.
For detection of IgM^a anti-Ars antibodies, microtiter plates were coated with 10 μg/ml Ars-BSA16 in PBS and blocked with 2 mg/ml BSA in PBS 0.05% Tween-20. For detection of IgM^a anti-HEL antibodies, microtiter plates were coated with 10 μg/ml HEL in PBS and blocked with 2 mg/ml BSA in PBS 0.05% Tween-20. For detection of total NP-specific IgM and IgG, microtiter plates were coated with 20 μg/ml NP27BSA and blocked with 2 mg/ml BSA in PBS 0.05% Tween-20. For detection of high affinity NP-specific IgM and IgG, microtiter plates were coated with 20 μg/ml NP2BSA and blocked with 2 mg/ml BSA in PBS 0.05% Tween-20. Serial dilutions of mouse serum in PBS were added and incubated overnight at 4° C. Ars/A1-derived IgM^a antibodies and MD4-derived HEL IgM^a antibodies were detected with biotinylated DS.1 anti-IgM^a (BD Pharmingen) in PBS, followed by Streptavidin-HRP (Thermo Fisher Scientific). For NP-specific IgM antibodies were detected using goat-anti-mouse IgM-HRP (SouthernBiotech). For NP-specific IgG antibodies were detected using goat-anti-mouse IgG-HRP (SouthernBiotech). Between all steps, plates were washed 3 times with PBS 0.05% Tween-20. The ELISA was developed with TMB single solution (Invitrogen) and the reaction was stopped with 1M HCl. OD was measured at 450 nm using a VERSAMax plate reader (Molecular Devices) and data analyzed with SoftMax Pro6 software.
For detection of IgM^a anti-Ars antibodies, microtiter plates were coated with 10 μg/ml Ars-BSA16 in PBS and blocked with 2 mg/ml BSA in PBS 0.05% Tween-20. For detection of IgM^a anti-HEL antibodies, microtiter plates were coated with 10 μg/ml HEL in PBS and blocked with 2 mg/ml BSA in PBS 0.05% Tween-20. For detection of total NP-specific IgM and IgG, microtiter plates were coated with 20 μg/ml NP27BSA and blocked with 2 mg/ml BSA in PBS 0.05% Tween-20. For detection of high affinity NP-specific IgM and IgG, microtiter plates were coated with 20 μg/ml NP2BSA and blocked with 2 mg/ml BSA in PBS 0.05% Tween-20. Plates were washed 3 times prior to use with PBS 0.05% Tween-20. RBC-depleted single-cell suspension of splenocytes in complete medium were added in two-fold serial dilutions starting at 1/100th of a spleen in the first well. Plates were incubated overnight at 37° C. Ars/A1-derived IgM^a antibodies and MD4-derived HEL IgM^a antibodies were detected with biotinylated DS.1 anti-IgM^a (BD Pharmingen) in PBS, followed by Streptavidin-AP (SouthernBiotech). For NP-specific IgM antibodies were detected using goat-anti-mouse IgM-AP (SouthernBiotech). For NP-specific IgG antibodies were detected using goat-anti-mouse IgG-AP (SouthernBiotech). Between all steps, plates were washed 3 times with PBS 0.05% Tween-20. The plates were developed by incubated with ELISPOT developing buffer ([…] 5-bromochloro-3-indolyl phosphate p-toluidine, […], 100 mM Tris, and 10 mM MgCl2, pH 9.5) for 1 hour. […]

PLCγ = test: phosphorylated signaling intermediaries after BCR stimulation: PLCγ; type: cell-based, mouse; conditions: all doses of inhibitor (15, 60, 490 nM), preincubation
Protocol: Cells are then washed 2× in serum free IMDM, and stimulated with 5 μg/ml of F(ab′)2 rabbit anti-mouse anti-IgG (H&L; Invitrogen) or 10 μg/ml anti-CD3-biotin (BD Biosciences)+20 μg/ml streptavidin (Sigma-Aldrich) for 2 minutes. Signaling was stopped by addition of 20% PFA to a final concentration of 2%, incubated at 37° C. for 15 minutes and resuspended in 100% ice-cold MeOH (directly from −80° C.). Cells were then placed on ice for 30 minutes and placed at −20° C. for storage. For analysis, cells were stained with B220-BV786, CD4-BV711, CD8-BV421, and/or pAKT-Alexa Fluor 647 (BD Biosciences), pPLCγ-PE (BD Biosciences), pBTK-BV421 (BD Biosciences) pSyk/Zap70-PE (BD Biosciences) at room temperature for 1 hour. Cells were washed 3 times and samples were acquired in triplicate on an LSR Fortessa X-20 (BD) with analysis using FlowJo software.

[1] = 0.9375 mg/kg chow, 14 days post-immunization, vs vehicle control
[2] = 0.9375 mg/kg chow, day 14 post-immunization, vs vehicle control

## CC[C@H](Nc1ncnc2nc[nH]c12)c1nc2cccc(F)c2c(=O)n1-c1ccccc1 [idelalisib, 5-fluoro-3-phenyl-2-[(1S)-1-(7H-purin-6-ylamino)propyl]-4(3H)-quinazolinone]
NOD mice; 0.9375 mg/kg chow for 4 weeks, 14 days post-immunization, vs vehicle control
  anti-NP IgM response in the spleen: not different
NOD mice; 0.9375 mg/kg chow vs vehicle control
  B cell numbers in the spleens: no difference
NOD mice; [1]
  high affinity IgG anti-NP ASCs/spleen: no observed difference
  number of high-affinity IgM anti-NP ASCs/spleen: equivalent
  number of total anti-NP IgM antibody secreting cells (ASCs) per spleen: equivalent
  total IgG anti-NP ASCs/spleen: no observed difference
NOD mice; [2]
  levels of IgG anti-NP found in the periphery: equivalent
  levels of IgM anti-NP found in the periphery: equivalent
PLCγ
  phosphorylation of PLCγ: significantly reduced
